Reference: the supplement of paper PMC10307832

compound: C1CC(C2=C(C1)C3=C(N2)C=CC(=C3)Cl)C(=O)N [Selisistat] + Cc1cc(Nc2cc(N3CCN(C)CC3)nc(Sc3ccc(NC(=O)C4CC4)cc3)n2)n[nH]1 [Tozasertib] (partner 0.1 µM); assay: relative viability (nuclei count vs DMSO), 5 days (fraction); higher = more cells survive; details: first compound 40 µM
Summary of the method: (§1)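 Relative viability divides the nuclei count in treated wells by that in vehicle wells. Lung cancer cell lines were seeded in 1536-well plates, dosed by pin tool the next day, and fixed and stained after 5 days in one step with final 0.05% Triton X-100, 1% formaldehyde and 1 ug/ml Hoechst. Dosing was a single drug or a fixed anchor-drug dose plus five library-drug doses (not always all listed) in √10 steps, and values are medians of duplicate plates imaged at 4×.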

Cell Line	relative viability
NCI-H1944	0.256
NCI-H1975	0.396
RERF-LC-KJ	0.371

compound: c1ccc2c(CCNc3ccc(Nc4ccncc4)cc3)c[nH]c2c1 [Serdemetan] + Cc1nc(NC(=O)N2CCC[C@H]2C(N)=O)sc1-c1ccnc(C(C)(C)C(F)(F)F)c1 [Alpelisib] (partner 2 µM); assay: as above; details: first compound 0.04 µM
Summary of the method: as §1

Cell Line	relative viability
HOP-62	0.966
LU99A	0.516
BEN	0.929
HARA	0.783
HCC-78	0.337
NCI-H322M	0.853
LCLC-97TM1	0.258
A-427	1.05
NCI-H441	0.85
NCI-H1734	0.61
NCI-H460	0.506
NCI-H2347	0.936
NCI-H1395	0.863
201T	0.965
NCI-H1915	1.04
HCC-827	0.924
LXF-289	1.02

Cell Line	relative viability
NCI-H23	0.674
NCI-H647	1.16
CAL-12T	1.11
NCI-H1651	0.889
EPLC-272H	0.968
NCI-H1355	0.952
NCI-H3122	0.809
NCI-H1437	0.936
NCI-H1755	0.893
HCC-15	0.924
NCI-H1793	0.704
PC-14	0.954
EKVX	0.876
LC-2-ad	0.987
NCI-H1944	0.806
NCI-H1975	0.68
RERF-LC-KJ	0.804

same assay, conditions: first compound 0.1265 µM

Cell Line	relative viability
HOP-62	0.914
LU99A	0.576
BEN	1.02
HARA	0.819
HCC-78	0.36
NCI-H322M	0.875
LCLC-97TM1	0.203
A-427	1.05
NCI-H441	0.678
NCI-H460	0.415
NCI-H2347	1.02
NCI-H1395	0.903
201T	0.995
NCI-H1915	1.06
HCC-827	0.934
LXF-289	1.01
NCI-H23	0.682

Cell Line	relative viability
NCI-H647	1.2
CAL-12T	1.5
NCI-H1651	0.78
EPLC-272H	0.834
NCI-H1355	0.786
NCI-H3122	0.715
NCI-H1437	1.01
NCI-H1755	0.898
HCC-15	0.825
NCI-H1793	0.738
PC-14	0.93
EKVX	0.911
LC-2-ad	0.804
NCI-H1944	0.753
NCI-H1975	0.675
RERF-LC-KJ	0.832

same assay, conditions: first compound 0.4 µM

Cell Line	relative viability
HOP-62	0.947
LU99A	0.342
BEN	0.987
HARA	0.741
HCC-78	0.349
NCI-H322M	0.838
LCLC-97TM1	0.241
A-427	1.1
NCI-H441	0.803
NCI-H1734	0.259
NCI-H460	0.333
NCI-H2347	1.01
NCI-H1395	1.12
201T	1.01
NCI-H1915	1.01
LXF-289	0.937
NCI-H23	0.577

Cell Line	relative viability
NCI-H647	1.05
CAL-12T	1.23
NCI-H1651	0.65
EPLC-272H	0.881
NCI-H1355	0.752
NCI-H3122	0.779
NCI-H1437	0.896
NCI-H1755	0.815
HCC-15	0.856
NCI-H1793	0.754
PC-14	0.784
EKVX	0.804
LC-2-ad	0.803
NCI-H1944	0.715
NCI-H1975	0.666
RERF-LC-KJ	0.777

same assay, conditions: first compound 1.265 µM

Cell Line	relative viability
HOP-62	0.76
LU99A	0.175
BEN	0.99
HCC-78	0.364
NCI-H322M	0.755
LCLC-97TM1	0.225
A-427	0.833
NCI-H441	0.524
NCI-H1734	0.122
NCI-H460	0.171
NCI-H2347	0.866
NCI-H1395	0.912
201T	0.939
NCI-H1915	0.503
HCC-827	0.723
LXF-289	0.844
NCI-H23	0.538
NCI-H647	0.762
NCI-H1651	0.371
EPLC-272H	0.647
NCI-H1355	0.875
NCI-H1437	0.807
NCI-H1755	0.499
HCC-15	0.531
NCI-H1793	0.53
PC-14	0.852
EKVX	0.676
NCI-H1975	0.637
RERF-LC-KJ	0.801

same assay, conditions: first compound 4 µM

Cell Line	relative viability
HOP-62	0.841
LU99A	0.17
BEN	0.824
HARA	0.391
HCC-78	0.262
NCI-H322M	0.75
LCLC-97TM1	0.202
A-427	0.561
NCI-H441	0.513
NCI-H1734	0.178
NCI-H460	0.0988
NCI-H2347	0.703
NCI-H1395	0.564
201T	0.883
NCI-H1915	0.802
HCC-827	0.6
LXF-289	0.844

Cell Line	relative viability
NCI-H23	0.596
NCI-H647	0.671
CAL-12T	1.18
NCI-H1651	0.213
EPLC-272H	0.843
NCI-H1355	0.774
NCI-H3122	0.771
NCI-H1437	0.802
NCI-H1755	0.456
HCC-15	0.579
NCI-H1793	0.347
PC-14	0.825
EKVX	0.619
LC-2-ad	0.806
NCI-H1944	0.453
NCI-H1975	0.803
RERF-LC-KJ	0.643

compound: C1CC(C2=C(C1)C3=C(N2)C=CC(=C3)Cl)C(=O)N [Selisistat] + NC(=O)Nc1cc(-c2cccc(F)c2)sc1C(=O)N[C@H]1CCCNC1 [AZD7762] (partner 0.2 µM); assay: as above; details: first compound 0.4 µM
Summary of the method: as §1

Cell Line	relative viability
HOP-62	0.62
LU99A	0.372
BEN	0.74
HARA	0.237
HCC-78	0.626
NCI-H322M	0.579
LCLC-97TM1	0.187
A-427	0.742
NCI-H441	1.19
NCI-H1734	0.594
NCI-H460	0.617
NCI-H2347	0.733
NCI-H1395	0.377
201T	0.644
NCI-H1915	0.668
HCC-827	0.206
LXF-289	1.12

Cell Line	relative viability
NCI-H23	0.297
NCI-H647	0.465
CAL-12T	0.589
NCI-H1651	0.426
EPLC-272H	0.236
NCI-H1355	0.774
NCI-H3122	1.03
NCI-H1437	1.17
NCI-H1755	0.427
HCC-15	1.34
NCI-H1793	0.477
PC-14	0.381
EKVX	0.682
LC-2-ad	0.827
NCI-H1944	0.523
NCI-H1975	0.684
RERF-LC-KJ	0.932

same assay, conditions: first compound 1.265 µM

Cell Line	relative viability
HOP-62	0.568
LU99A	0.256
BEN	0.535
HARA	0.342
HCC-78	0.669
NCI-H322M	0.657
LCLC-97TM1	0.208
A-427	0.785
NCI-H441	1.06
NCI-H1734	0.485
NCI-H460	0.488
NCI-H2347	0.66
NCI-H1395	0.393
201T	0.623
NCI-H1915	0.687
HCC-827	0.154
LXF-289	1.14

Cell Line	relative viability
NCI-H23	0.193
NCI-H647	0.433
CAL-12T	0.626
NCI-H1651	0.491
EPLC-272H	0.215
NCI-H1355	0.753
NCI-H3122	0.95
NCI-H1437	1.12
NCI-H1755	0.391
HCC-15	1.23
NCI-H1793	0.461
PC-14	0.344
EKVX	0.732
LC-2-ad	0.814
NCI-H1944	0.509
NCI-H1975	0.661
RERF-LC-KJ	0.765

same assay, conditions: first compound 4 µM

Cell Line	relative viability
HOP-62	0.696
LU99A	0.392
BEN	0.471
HCC-78	0.431
NCI-H441	1.29
NCI-H1734	0.453
201T	0.7
NCI-H1915	0.775
HCC-827	0.187
LXF-289	0.936
NCI-H647	0.345
CAL-12T	0.566
NCI-H1651	0.462
NCI-H1355	0.717
NCI-H1437	0.918
NCI-H1755	0.407
HCC-15	1.16
PC-14	0.226
EKVX	0.705
LC-2-ad	0.68
NCI-H1944	0.428
NCI-H1975	0.581
RERF-LC-KJ	0.823

same assay, conditions: first compound 12.65 µM

Cell Line	relative viability
HOP-62	0.633
LU99A	0.436
BEN	0.71
HARA	0.364
HCC-78	0.683
NCI-H322M	0.572
LCLC-97TM1	0.342
A-427	0.725
NCI-H441	0.969
NCI-H1734	0.505
NCI-H460	0.571
NCI-H2347	0.774
NCI-H1395	0.394
201T	0.602
NCI-H1915	0.674
HCC-827	0.279
LXF-289	1.03

Cell Line	relative viability
NCI-H23	0.31
NCI-H647	0.432
CAL-12T	0.605
NCI-H1651	0.521
EPLC-272H	0.318
NCI-H1355	0.819
NCI-H3122	1.04
NCI-H1437	0.99
NCI-H1755	0.407
HCC-15	1.3
NCI-H1793	0.53
PC-14	0.278
EKVX	0.699
LC-2-ad	0.775
NCI-H1944	0.653
NCI-H1975	0.647
RERF-LC-KJ	0.898

same assay, conditions: first compound 40 µM

Cell Line	relative viability
HOP-62	1.2
LU99A	0.338
BEN	0.649
HARA	0.219
HCC-78	0.502
NCI-H322M	0.675
LCLC-97TM1	0.183
A-427	0.757
NCI-H441	1.32
NCI-H1734	0.607
NCI-H460	0.697
NCI-H2347	0.795
NCI-H1395	0.4
201T	0.659
NCI-H1915	0.757
HCC-827	0.24
LXF-289	1.1

Cell Line	relative viability
NCI-H23	0.169
NCI-H647	0.553
CAL-12T	0.732
NCI-H1651	0.523
EPLC-272H	0.336
NCI-H1355	0.814
NCI-H3122	1
NCI-H1437	1.01
NCI-H1755	0.43
HCC-15	1.55
NCI-H1793	0.73
PC-14	0.36
EKVX	0.802
LC-2-ad	0.9
NCI-H1944	0.586
NCI-H1975	0.646
RERF-LC-KJ	0.877
